From PubChem BioAssay (NCI) come the findings set out here.

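Cultured in 96-well plates, cells were exposed to test compound for 48 hours across five concentrations. Definition used: TGI = concentration required for complete inhibition of growth.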 Bounds are passed on as bounds.

Among the test systems are NCI-H23 lung; SF-539 CNS; U251 CNS; SNB-19 CNS; OVCAR-3 ovarian; HCT-15 colon; HT29 colon; BT-549 breast; SN12C renal; TK-10 renal; HCT-116 colon; SNB-75 CNS; UO-31 renal; NCI-H226 lung; SR leukemia.
What all share (assay): DTP human tumour cell line panel, 48 h

Usually TGI stands for the concentration at which net growth stops. Low readings indicate greater sensitivity of the cells, high ones lower sensitivity of the cells.

For the compound `C=C[C@@H]1C[C@]2(C(=O)OC)Cc3nc4ccccc4nc3CC(C(=O)OC)=C2O1`, the concentration for total growth inhibition (TGI) in the assay with NCI-H23 lung, in the assay with SF-539 CNS, with U251 CNS, with SNB-19 CNS, in the assay with OVCAR-3 ovarian and with HCT-15 colon was > 100 µM each time. Besides, the concentration for total growth inhibition (TGI) with HT29 colon, with BT-549 breast, in the assay on SN12C renal, in the assay with TK-10 renal and in the assay on HCT-116 colon was > 100 µM throughout.

As for `c1ccc([P+](Cc2ccccc2C[P+](c2ccccc2)(c2ccccc2)c2ccccc2)(c2ccccc2)c2ccccc2)cc1`, the TGI in the assay on SNB-75 CNS, in the assay on NCI-H23 lung, in the assay on UO-31 renal, in the assay with SF-539 CNS, in the assay with U251 CNS and in the assay on SNB-19 CNS was > 100 µM each time. Moreover, the concentration for total growth inhibition (TGI) in the assay with OVCAR-3 ovarian, in the assay with HCT-15 colon, with HT29 colon, in the assay on NCI-H226 lung, with BT-549 breast and in the assay with SN12C renal was > 100 µM in each case. Further, the TGI in the assay with TK-10 renal and with HCT-116 colon was > 100 µM each time.

Regarding `O=P1(Oc2ccccc2)N(CCCl)CCN1c1ccccc1` (stereo unspecified), the total growth inhibition concentration (TGI) in the assay with SNB-75 CNS, in the assay on NCI-H23 lung, in the assay on UO-31 renal, in the assay on SF-539 CNS, in the assay with U251 CNS and in the assay on SNB-19 CNS was > 100 µM each time. In addition, the TGI in the assay on OVCAR-3 ovarian, with HCT-15 colon, in the assay with HT29 colon, in the assay on SR leukemia, in the assay on NCI-H226 lung and in the assay with SN12C renal was > 100 µM in each case. For the same compound, the TGI in the assay on TK-10 renal and in the assay with HCT-116 colon was > 100 µM each time.

`CCCCCCCCCCCCCCCCOCC(Cl)COP(=O)(O)OP(=O)(O)OCC1OC(n2cc(C)c(=O)[nH]c2=O)CC1O` (stereo unspecified): the TGI in the assay with SNB-75 CNS was 71.8 µM; in the assay with NCI-H23 lung, > 100 µM; with UO-31 renal, > 100 µM; with SF-539 CNS, > 100 µM; in the assay on U251 CNS, > 100 µM; in the assay with SNB-19 CNS, > 100 µM. Further, the TGI was > 100 µM in the assay on OVCAR-3 ovarian; > 100 µM with HCT-15 colon; > 100 µM in the assay with HT29 colon; 80.5 µM in the assay with NCI-H226 lung; > 100 µM in the assay on BT-549 breast; > 100 µM in the assay on SN12C renal. Besides, the total growth inhibition concentration (TGI) with TK-10 renal and in the assay with HCT-116 colon was > 100 µM each time.

Turning to `c1cc2c(c(NC3=NCCO3)c1)CCC2`, the TGI in the assay with NCI-H23 lung, with UO-31 renal, with SF-539 CNS, with U251 CNS, in the assay with SNB-19 CNS and with OVCAR-3 ovarian was > 100 µM throughout. The TGI in the assay on HCT-15 colon, in the assay with HT29 colon, with SR leukemia, in the assay on NCI-H226 lung, in the assay with SN12C renal and in the assay with TK-10 renal was > 100 µM throughout. Moreover, in the assay on HCT-116 colon, the TGI was > 100 µM.

With `CCC[C@H](NS(=O)c1ccc(C)cc1)C(C(=O)OCC)=C(c1ccccc1)c1ccccc1` (stereo partly specified), the TGI in the assay with SNB-75 CNS is 54.2 µM; in the assay on NCI-H23 lung, 96 µM; in the assay with UO-31 renal, 31.2 µM; in the assay on SF-539 CNS, 48.5 µM; with U251 CNS it was 33.5 µM; with SNB-19 CNS, > 100 µM. For the same compound, the concentration for total growth inhibition (TGI) in the assay on HCT-15 colon is > 100 µM; in the assay on HT29 colon, 30.4 µM; in the assay on NCI-H226 lung, 51.6 µM; with BT-549 breast, 48.3 µM; in the assay on SN12C renal, 41.7 µM; with TK-10 renal, 97 µM. In the assay with HCT-116 colon, the total growth inhibition concentration (TGI) worked out at 27.4 µM.

`CC1Oc2c(c(=O)oc3ccccc23)[C@@]1(C)CC1C[C@H](C)C(=O)O1` (stereo partly specified): the TGI in the assay on SNB-75 CNS was > 100 µM; in the assay with NCI-H23 lung, 40.9 µM; in the assay with UO-31 renal it was 90.2 µM; in the assay on SF-539 CNS it was 64.2 µM; in the assay with U251 CNS, > 100 µM; in the assay with SNB-19 CNS, > 100 µM. For the same compound, the total growth inhibition concentration (TGI) is 45.3 µM in the assay on OVCAR-3 ovarian; > 100 µM in the assay on HCT-15 colon; 71.5 µM in the assay on HT29 colon; > 100 µM with NCI-H226 lung; 71.8 µM in the assay on BT-549 breast; > 100 µM in the assay on TK-10 renal. In the assay on HCT-116 colon, this compound had a TGI of 28.4 µM.

As to `CCCCC(Sc1cc(Cl)c(C)cc1S(=O)(=O)Nc1n[nH]c(N)n1)C(=O)OC` (stereo unspecified), the total growth inhibition concentration (TGI) with SNB-75 CNS, in the assay with NCI-H23 lung, in the assay on SF-539 CNS, with U251 CNS, in the assay on SNB-19 CNS and with OVCAR-3 ovarian was > 10 µM throughout. Moreover, the TGI in the assay on HCT-15 colon, in the assay on HT29 colon, in the assay on NCI-H226 lung, in the assay on BT-549 breast, in the assay with SN12C renal and in the assay with TK-10 renal was > 10 µM in each case. Moreover, in the assay on HCT-116 colon, the total growth inhibition concentration (TGI) is > 10 µM.

In the case of `O=C(N=Nc1cccc(Cl)c1)NNc1cccc(Cl)c1`, the TGI was > 100 µM in the assay on SNB-75 CNS; > 100 µM in the assay on NCI-H23 lung; 45.5 µM in the assay on UO-31 renal; 40 µM with U251 CNS; > 100 µM in the assay with SNB-19 CNS; 29.9 µM in the assay with OVCAR-3 ovarian. Also, the TGI in the assay on HCT-15 colon is 75.7 µM; in the assay on HT29 colon, 43.5 µM; with SR leukemia, 90.7 µM; in the assay with NCI-H226 lung, > 100 µM; in the assay with SN12C renal, 35.9 µM; with TK-10 renal, 66.6 µM. The compound also returned a TGI with HCT-116 colon of 21.2 µM.

Consider `COCCCNC(=O)C1=C(C)NC(C)=C(C(=O)NCCCOC)C1`, for which the TGI in the assay with SNB-75 CNS, in the assay on NCI-H23 lung, in the assay with UO-31 renal, in the assay on SF-539 CNS, with U251 CNS and with SNB-19 CNS was > 100 µM in each case. For the same compound, the TGI in the assay on OVCAR-3 ovarian, in the assay on HT29 colon, in the assay with SR leukemia, in the assay on NCI-H226 lung, in the assay on SN12C renal and in the assay with TK-10 renal was > 100 µM each time. In addition, in the assay with HCT-116 colon, the total growth inhibition concentration (TGI) is > 100 µM.
